For this assay, the target named is T1, FLAG-tagged SNAP-Tag protein (SNAP-FLAG) (Homo sapiens, UniProt P16455, A127T/A154D/C150Q/C62A/E30R/G131K/G132T/G153L/K125A/K32I/L33F/M134L/N157G/Q115S/Q116H/R128A/R135S/S151G/S152D/S159E).
T1 construct: expressed in transfected cells
T1 sequence (P16455 1-182 E30R/K32I/L33F/C62A/Q115S/Q116H/K125A/A127T/R128A/G131K/G132T/M134L/R135S/C150Q/S151G/S152D/G153L/A154D/N157G/S159E limits assumed): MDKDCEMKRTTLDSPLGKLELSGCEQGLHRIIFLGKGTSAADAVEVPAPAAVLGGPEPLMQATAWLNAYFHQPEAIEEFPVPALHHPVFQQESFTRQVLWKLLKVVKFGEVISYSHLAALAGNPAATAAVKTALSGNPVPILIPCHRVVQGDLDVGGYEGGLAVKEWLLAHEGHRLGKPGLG
Nature of the assay: PP1 dose response: covalent labeling of SNAP-FLAG in live cells (Western blot). Type of assay: cell-based. The conditions noted are these: HEK293T cells stably expressing SNAP-FLAG, increasing doses for two hours, not irradiated. The method, then: PP1 close response and viability assay: Dose response—Each well of a 6-well plate was seeded with 300,000 HEK293T cells stably expressing either SNAP-FLAG or KEAP-SNAP. After reaching ˜90% confluency the growth media was removed, cells washed with DPBS, and treated with varying concentrations (0, 0.5, 1, 5, 15, 45 μM) of photoproximity probe PP1 in 500 μL serum-free DMEM for 2 hours at 37° C. Post treatment, media was aspirated and non-reacted probe washed out with 3 mL full DMEM over 40 minutes, changing the media twice. Cells were harvested, washed, and lysed in DPBS containing protease inhibitor using a tip sonicator. Lysate was normalized to 1 mg/mL then diluted with loading buffer and run on SDS-PAGE gel that was transferred by western blot to nitrocellulose. The nitrocellulose membrane was stained for biotin and Flag-Tag using streptavidin IR dye (Li-cor #926-32230; Li-cor Biosciences, Lincoln, Nebr., United States of America) and anti-Flag (Sigma #F3165, Sigma-Aldrich, St. Louis, Mo., United States of America; Li-cor #926-68072, Li-cor Biosciences, Lincoln, Nebr., United States of America). Fluorescence images were collected using an Odyssey infrared imager (Li-cor Biosciences, Lincoln, Nebr., United States of America). […]

The structures appear in SMILES notation. pEC50: −log10 of the molar value.

Broadly, the pEC50 is the EC50 on a negative log10 scale, so that one unit is a factor of ten.

`COc1cc(C(C)OC(=O)NC(CCCCNC(=O)CCC2(C)N=N2)C(=O)NCCCCCNC(=O)CCCCC2SCC3NC(=O)NC32)c([N+](=O)[O-])cc1OCCCC(=O)NCc1ccc(COc2nc(N)nc3[nH]cnc23)cc1` (stereo not shown) [PP1] had a pEC50 of 5.35.
